PubChem BioAssay AID1963840 (Molecular Pharmacology Branch, DTP, NCI, 2024)

System: 695427-040-R-J1-PDC complex spheroid viability
Experiment: Anticancer human tumor 695427-040-R-J1-PDC patient-derived colon adenocarcinoma cell line growth inhibition [POLQ]
Settings: for IC50: curve of first compound; for viability, T/C: stronger effect = lower value
Method in brief: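 Three-cell-type spheroids modelling solid tumor plus stroma served as the readout system; POL inhibitors were tested individually and in combination, concentration ranges set by clinical Cmax where known.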

[1] = second compound 0.0316 µM, first compound 0.0316 µM
[2] = second compound 0.0316 µM, first compound 0.1 µM
[3] = second compound 0.0316 µM, first compound 0.316 µM
[4] = second compound 0.0316 µM, first compound 1 µM
[5] = second compound 0.0316 µM, first compound 3.16 µM
[6] = second compound 0.0316 µM, first compound 10 µM
[7] = second compound 0.1 µM, first compound 0.0316 µM
[8] = second compound 0.1 µM, first compound 0.1 µM
[9] = second compound 0.1 µM, first compound 0.316 µM
[10] = second compound 0.1 µM, first compound 1 µM
[11] = second compound 0.1 µM, first compound 3.16 µM
[12] = second compound 0.1 µM, first compound 10 µM
[13] = second compound 0.316 µM, first compound 0.0316 µM
[14] = second compound 0.316 µM, first compound 0.1 µM
[15] = second compound 0.316 µM, first compound 0.316 µM
[16] = second compound 0.316 µM, first compound 1 µM
[17] = second compound 0.316 µM, first compound 3.16 µM
[18] = second compound 0.316 µM, first compound 10 µM
[19] = second compound 1 µM, first compound 0.0316 µM
[20] = second compound 1 µM, first compound 0.1 µM
[21] = second compound 1 µM, first compound 0.316 µM
[22] = second compound 1 µM, first compound 1 µM
[23] = second compound 1 µM, first compound 3.16 µM
[24] = second compound 1 µM, first compound 10 µM
[25] = second compound 3.16 µM, first compound 0.0316 µM
[26] = second compound 3.16 µM, first compound 0.1 µM
[27] = second compound 3.16 µM, first compound 0.316 µM
[28] = second compound 3.16 µM, first compound 1 µM
[29] = second compound 3.16 µM, first compound 3.16 µM
[30] = second compound 3.16 µM, first compound 10 µM
[31] = second compound 10 µM, first compound 0.0316 µM
[32] = second compound 10 µM, first compound 0.1 µM
[33] = second compound 10 µM, first compound 0.316 µM
[34] = second compound 10 µM, first compound 1 µM
[35] = second compound 10 µM, first compound 3.16 µM
[36] = second compound 10 µM, first compound 10 µM
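Further: spheroids exposed to compounds for seven days.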
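Wherever viability, T/C is given: 100% = DMSO vehicle control viability.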

In the case of CCc1cc2c(N3CCc4c(cc(Cn5ccnc5)cc4-c4cn(C)nc4C(F)(F)F)C3=O)ccnc2c(OC)n1 + Cc1cccc(N(C)C(=O)C2C(O)CCN2c2nc(C)cc(C(F)(F)F)c2C#N)c1, the IC50 (second compound 0.0316 µM) is reported as > 10 µM, the IC50 (second compound 0.1 µM) is reported as > 10 µM and the IC50 (second compound 0.316 µM) is reported as > 10 µM. The IC50 (second compound 1 µM) was > 10 µM, the IC50 (second compound 3.16 µM) was > 10 µM and the IC50 (second compound 10 µM) was > 10 µM. It also gave a viability, T/C [1] of 97%, a viability, T/C [2] of 99.7% and a viability, T/C [3] of 98.2%. For the same compound, the viability, T/C [4] was 104%, the viability, T/C [5] was 105% and the viability, T/C [6] was 92.4%. The viability, T/C [7] was 110%, the viability, T/C [8] was 107% and the viability, T/C [9] was 109%. The viability, T/C [10] was 103%, the viability, T/C [11] was 114% and the viability, T/C [12] was 89.3%. It also gave a viability, T/C [13] of 105%, a viability, T/C [14] of 109% and a viability, T/C [15] of 92.8%. The viability, T/C [16] was 113%, the viability, T/C [17] was 109% and the viability, T/C [18] was 81.3%. For the same compound, the viability, T/C [19] was 103%, the viability, T/C [20] was 108% and the viability, T/C [21] was 105%. For the same compound, the viability, T/C [22] was 103%, the viability, T/C [23] was 102% and the viability, T/C [24] was 82.7%. It also gave a viability, T/C [25] of 101%, a viability, T/C [26] of 94.9% and a viability, T/C [27] of 95.2%. The viability, T/C [28] was 103%, the viability, T/C [29] was 99.8% and the viability, T/C [30] was 85.5%. It also gave a viability, T/C [31] of 98%, a viability, T/C [32] of 86.4% and a viability, T/C [33] of 93.6%. The viability, T/C [34] was 97.8%, the viability, T/C [35] was 103% and the viability, T/C [36] was 83.6%.

With O=C(Nc1ccc(O)c(NS(=O)(=O)c2ccc(F)cc2)c1)c1ccc(-c2ccccc2)cc1 + Cc1cccc(N(C)C(=O)C2C(O)CCN2c2nc(C)cc(C(F)(F)F)c2C#N)c1 the IC50 (second compound 0.0316 µM) was > 10 µM, the IC50 (second compound 0.1 µM) was > 10 µM and the IC50 (second compound 0.316 µM) was > 10 µM. The IC50 (second compound 1 µM) was > 10 µM, the IC50 (second compound 3.16 µM) was > 10 µM and the IC50 (second compound 10 µM) was > 10 µM. It also gave a viability, T/C [1] of 111%, a viability, T/C [2] of 107% and a viability, T/C [3] of 92.2%. For the same compound, the viability, T/C [4] was 103%, the viability, T/C [5] was 108% and the viability, T/C [6] was 98.4%. The viability, T/C [7] was 105%, the viability, T/C [8] was 101% and the viability, T/C [9] was 95.9%. It also gave a viability, T/C [10] of 99.5%, a viability, T/C [11] of 112% and a viability, T/C [12] of 88.2%. It also gave a viability, T/C [13] of 104%, a viability, T/C [14] of 103% and a viability, T/C [15] of 97.4%. The viability, T/C [16] was 101%, the viability, T/C [17] was 111% and the viability, T/C [18] was 86.9%. For the same compound, the viability, T/C [19] was 109%, the viability, T/C [20] was 95.9% and the viability, T/C [21] was 101%. It also gave a viability, T/C [22] of 94.4%, a viability, T/C [23] of 115% and a viability, T/C [24] of 92.3%. It also gave a viability, T/C [25] of 97.6%, a viability, T/C [26] of 101% and a viability, T/C [27] of 93.5%. The viability, T/C [28] was 103%, the viability, T/C [29] was 103% and the viability, T/C [30] was 93.6%. For the same compound, the viability, T/C [31] was 103%, the viability, T/C [32] was 92.2% and the viability, T/C [33] was 96.1%. It also gave a viability, T/C [34] of 94%, a viability, T/C [35] of 102% and a viability, T/C [36] of 82.6%.

O=C(c1cc(Cc2n[nH]c(=O)c3ccccc23)ccc1F)N1CCN(C(=O)C2CC2)CC1 + Nc1ccc(C#CCN(C(=O)Cc2ncc(C(F)(F)F)cc2C(F)(F)F)c2ccc(F)cc2)nn1 was tested, and the IC50 (second compound 0.0316 µM) was > 10 µM, the IC50 (second compound 0.1 µM) was > 10 µM and the IC50 (second compound 0.316 µM) was > 10 µM. For the same compound, the IC50 (second compound 1 µM) was > 10 µM, the IC50 (second compound 3.16 µM) was > 10 µM and the IC50 (second compound 10 µM) was > 10 µM. For the same compound, the viability, T/C [1] was 106%, the viability, T/C [2] was 104% and the viability, T/C [3] was 101%. It also gave a viability, T/C [4] of 103%, a viability, T/C [5] of 110% and a viability, T/C [6] of 106%. It also gave a viability, T/C [7] of 108%, a viability, T/C [8] of 103% and a viability, T/C [9] of 105%. The viability, T/C [10] was 112%, the viability, T/C [11] was 103% and the viability, T/C [12] was 102%. The viability, T/C [13] was 99.9%, the viability, T/C [14] was 102% and the viability, T/C [15] was 102%. For the same compound, the viability, T/C [16] was 103%, the viability, T/C [17] was 114% and the viability, T/C [18] was 102%. For the same compound, the viability, T/C [19] was 103%, the viability, T/C [20] was 100% and the viability, T/C [21] was 98.7%. The viability, T/C [22] was 95.9%, the viability, T/C [23] was 113% and the viability, T/C [24] was 106%. For the same compound, the viability, T/C [25] was 103%, the viability, T/C [26] was 97.7% and the viability, T/C [27] was 99.9%. The viability, T/C [28] was 103%, the viability, T/C [29] was 117% and the viability, T/C [30] was 104%. It also gave a viability, T/C [31] of 95.8%, a viability, T/C [32] of 105% and a viability, T/C [33] of 107%. It also gave a viability, T/C [34] of 96.6%, a viability, T/C [35] of 97.6% and a viability, T/C [36] of 96.1%.
